Assay: Hygroscopicity (moisture uptake) test of metformin salts
Assay type: physicochemical
Conditions: 25°C, 10 days; for moisture-absorption weight increase: 75% RH (saturated NaCl) and 93% RH (saturated KNO3), sampled on day 5 and day 10; for hygroscopicity compared with metformin: 75% RH and 93% RH

Structure (SMILES): CN(C)C(=N)NC(=N)N.O=C(O)c1cc2ccccc2cc1O [メトホルミンと2-ヒドロキシ-3-ナフトエ酸塩form2]
- moisture-absorption weight increase: < 5%
- hygroscopicity compared with metformin: 吸湿性が顕著に低下した

Structure (SMILES): CN(C)C(=N)N=C(N)N.O=C(O)c1ccc2ccccc2c1O [メトホルミンと1-ヒドロキシ-2-ナフトエ酸塩]
- hygroscopicity compared with metformin: 吸湿性が顕著に低下した

Structure (SMILES): CN(C)C(=N)NC(=N)N.O=C(O)c1ccc2ccccc2c1 [メトホルミンと2-ナフトエ酸塩]
- moisture-absorption weight increase: < 5%
- hygroscopicity compared with metformin: 吸湿性が顕著に低下した

Structure (SMILES): CN(C)C(=N)NC(=N)N.O=C(O)Cc1cccc2ccccc12 [メトホルミンと1-ナフタレン酢酸塩]
- moisture-absorption weight increase: < 5%
- hygroscopicity compared with metformin: 吸湿性が顕著に低下した

Structure (SMILES): CN(C)C(=N)N=C(N)N.O=C(O)c1cc2ccccc2cc1O [メトホルミンと2-ヒドロキシ-3-ナフトエ酸塩form1]
- moisture-absorption weight increase: < 5%
- hygroscopicity compared with metformin: 吸湿性が顕著に低下した

Structure (SMILES): CN(C)C(=N)N=C(N)N.Oc1cccc2c(O)cccc12 [メトホルミンと1,5-ジヒドロキシナフタレン, メトホルミンと1,5-ジヒドロキシナフタレン塩]
- moisture-absorption weight increase: < 5%
- hygroscopicity compared with metformin: 吸湿性が顕著に低下した
